One assay deals with Ephrin type-A receptor 2 (Homo sapiens, UniProt P29317).
Assay [1] has as its target T1, Cyclin-G-associated kinase (Homo sapiens, UniProt O14976).
T1 sequence (O14976 whole entry): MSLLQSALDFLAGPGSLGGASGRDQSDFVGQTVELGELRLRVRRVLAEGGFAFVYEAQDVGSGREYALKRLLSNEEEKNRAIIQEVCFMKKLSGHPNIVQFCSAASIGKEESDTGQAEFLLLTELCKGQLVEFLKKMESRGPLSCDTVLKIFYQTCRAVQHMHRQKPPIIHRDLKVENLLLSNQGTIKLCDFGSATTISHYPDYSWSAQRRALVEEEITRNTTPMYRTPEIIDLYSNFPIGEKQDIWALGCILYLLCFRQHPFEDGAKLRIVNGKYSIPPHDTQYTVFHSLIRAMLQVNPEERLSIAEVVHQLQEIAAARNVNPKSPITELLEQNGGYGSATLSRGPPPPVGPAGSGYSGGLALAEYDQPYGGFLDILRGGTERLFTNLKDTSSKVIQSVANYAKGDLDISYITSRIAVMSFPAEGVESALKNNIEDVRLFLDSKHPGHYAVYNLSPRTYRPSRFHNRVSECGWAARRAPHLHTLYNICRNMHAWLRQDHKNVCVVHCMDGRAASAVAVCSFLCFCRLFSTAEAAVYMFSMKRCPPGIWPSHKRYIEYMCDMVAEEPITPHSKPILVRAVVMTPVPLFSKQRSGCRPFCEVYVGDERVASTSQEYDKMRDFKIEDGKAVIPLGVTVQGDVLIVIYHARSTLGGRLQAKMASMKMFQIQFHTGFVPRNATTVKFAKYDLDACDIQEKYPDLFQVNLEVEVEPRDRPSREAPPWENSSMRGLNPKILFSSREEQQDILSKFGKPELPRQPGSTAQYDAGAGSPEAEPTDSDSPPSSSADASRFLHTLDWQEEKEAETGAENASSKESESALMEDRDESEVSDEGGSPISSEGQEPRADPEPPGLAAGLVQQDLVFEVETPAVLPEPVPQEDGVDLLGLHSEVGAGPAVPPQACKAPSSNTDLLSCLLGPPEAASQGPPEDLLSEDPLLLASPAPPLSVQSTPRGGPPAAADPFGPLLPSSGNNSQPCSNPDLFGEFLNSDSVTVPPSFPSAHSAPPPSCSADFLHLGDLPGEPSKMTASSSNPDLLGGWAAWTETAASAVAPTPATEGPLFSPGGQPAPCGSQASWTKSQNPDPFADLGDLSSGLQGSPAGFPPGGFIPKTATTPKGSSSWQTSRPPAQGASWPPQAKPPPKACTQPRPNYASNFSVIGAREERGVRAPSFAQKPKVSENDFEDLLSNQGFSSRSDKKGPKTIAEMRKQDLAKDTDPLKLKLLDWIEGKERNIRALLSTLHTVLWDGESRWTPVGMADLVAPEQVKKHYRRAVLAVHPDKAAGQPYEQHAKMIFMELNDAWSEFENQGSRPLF

A further assay concerns the target Insulin receptor (Homo sapiens, UniProt P06213).
Assay [2] concerns the target Mitogen-activated protein kinase 7 (Homo sapiens, UniProt Q13164).
For assay [3], the target named is T2, MAP kinase-activated protein kinase 5 (Homo sapiens, UniProt Q8IW41).
T2 sequence (Q8IW41 whole entry): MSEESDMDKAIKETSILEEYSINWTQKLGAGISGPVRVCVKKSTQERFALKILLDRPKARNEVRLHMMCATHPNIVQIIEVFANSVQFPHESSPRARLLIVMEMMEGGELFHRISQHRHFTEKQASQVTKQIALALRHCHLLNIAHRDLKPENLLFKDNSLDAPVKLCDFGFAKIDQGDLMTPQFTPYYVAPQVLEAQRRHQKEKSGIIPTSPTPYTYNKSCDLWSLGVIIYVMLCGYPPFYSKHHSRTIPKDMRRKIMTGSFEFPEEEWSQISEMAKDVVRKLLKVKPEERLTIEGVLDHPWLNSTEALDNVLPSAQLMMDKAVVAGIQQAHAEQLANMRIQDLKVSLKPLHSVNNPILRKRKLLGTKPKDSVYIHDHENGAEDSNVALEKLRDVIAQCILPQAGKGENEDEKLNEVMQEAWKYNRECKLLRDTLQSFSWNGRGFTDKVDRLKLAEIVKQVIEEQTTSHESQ

Assay [4] has as its target T3, Phosphatidylinositol 5-phosphate 4-kinase type-2 gamma (Homo sapiens, UniProt Q8TBX8).
T3 sequence (Q8TBX8 whole entry): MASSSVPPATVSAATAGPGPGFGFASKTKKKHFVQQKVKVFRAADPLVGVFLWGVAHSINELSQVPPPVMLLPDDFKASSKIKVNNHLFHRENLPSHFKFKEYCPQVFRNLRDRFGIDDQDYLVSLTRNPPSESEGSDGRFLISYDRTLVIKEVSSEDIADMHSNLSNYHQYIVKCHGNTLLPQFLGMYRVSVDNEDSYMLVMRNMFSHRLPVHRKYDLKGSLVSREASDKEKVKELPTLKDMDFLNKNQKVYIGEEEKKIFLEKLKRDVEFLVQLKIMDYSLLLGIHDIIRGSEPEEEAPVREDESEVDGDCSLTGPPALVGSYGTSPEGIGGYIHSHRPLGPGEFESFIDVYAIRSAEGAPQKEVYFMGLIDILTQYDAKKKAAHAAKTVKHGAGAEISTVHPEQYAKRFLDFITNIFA

In assay [5] the target is Ribosomal protein S6 kinase alpha-3 (Homo sapiens, UniProt P51812).
Assay [6] has as its target Adenylate kinase 2, mitochondrial (Homo sapiens, UniProt P54819).
The target in assay [7] is T4, Probable ATP-dependent RNA helicase DDX6 (Homo sapiens, UniProt P26196).
T4 sequence (P26196 whole entry): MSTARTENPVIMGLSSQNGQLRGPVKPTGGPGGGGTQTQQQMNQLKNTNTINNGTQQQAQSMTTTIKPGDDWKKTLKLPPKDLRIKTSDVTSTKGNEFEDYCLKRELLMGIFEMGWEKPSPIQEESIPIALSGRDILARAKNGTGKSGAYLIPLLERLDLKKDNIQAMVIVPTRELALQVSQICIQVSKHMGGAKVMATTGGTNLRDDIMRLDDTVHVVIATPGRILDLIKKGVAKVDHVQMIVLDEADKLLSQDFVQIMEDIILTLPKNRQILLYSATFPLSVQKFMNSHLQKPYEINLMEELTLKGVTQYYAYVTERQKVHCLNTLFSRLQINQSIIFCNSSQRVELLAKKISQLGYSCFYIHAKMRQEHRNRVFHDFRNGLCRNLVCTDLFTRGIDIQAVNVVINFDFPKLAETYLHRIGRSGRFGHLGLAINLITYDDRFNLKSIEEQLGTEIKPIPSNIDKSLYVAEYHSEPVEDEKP

Activity calls are given as the source filed them.

By Kd is commonly meant the constant that tells how readily two partners part at equilibrium.
Further: in the data inactive means no Kd found up to 30 µM.

Ribosomal protein S6 kinase alpha-3, sequence (P51812 whole entry): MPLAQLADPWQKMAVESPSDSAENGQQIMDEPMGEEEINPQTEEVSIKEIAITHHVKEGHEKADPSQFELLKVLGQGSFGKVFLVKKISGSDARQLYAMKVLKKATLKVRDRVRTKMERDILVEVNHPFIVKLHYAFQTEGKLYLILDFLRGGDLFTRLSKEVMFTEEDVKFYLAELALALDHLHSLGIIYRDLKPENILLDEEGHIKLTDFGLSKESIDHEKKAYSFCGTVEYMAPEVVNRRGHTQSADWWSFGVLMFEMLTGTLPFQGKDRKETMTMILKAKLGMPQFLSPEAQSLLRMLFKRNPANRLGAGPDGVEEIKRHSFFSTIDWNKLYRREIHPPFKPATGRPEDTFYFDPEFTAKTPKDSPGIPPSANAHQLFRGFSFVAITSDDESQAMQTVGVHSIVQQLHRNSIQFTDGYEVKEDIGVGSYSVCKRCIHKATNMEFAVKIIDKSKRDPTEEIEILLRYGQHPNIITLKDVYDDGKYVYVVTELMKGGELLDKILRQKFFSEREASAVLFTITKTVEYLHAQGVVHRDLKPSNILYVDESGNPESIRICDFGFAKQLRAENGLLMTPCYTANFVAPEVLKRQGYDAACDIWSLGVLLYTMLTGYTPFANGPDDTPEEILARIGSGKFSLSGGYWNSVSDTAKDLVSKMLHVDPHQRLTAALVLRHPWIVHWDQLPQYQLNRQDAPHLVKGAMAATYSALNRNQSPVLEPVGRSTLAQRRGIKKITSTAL
Mitogen-activated protein kinase 7, sequence (Q13164 whole entry): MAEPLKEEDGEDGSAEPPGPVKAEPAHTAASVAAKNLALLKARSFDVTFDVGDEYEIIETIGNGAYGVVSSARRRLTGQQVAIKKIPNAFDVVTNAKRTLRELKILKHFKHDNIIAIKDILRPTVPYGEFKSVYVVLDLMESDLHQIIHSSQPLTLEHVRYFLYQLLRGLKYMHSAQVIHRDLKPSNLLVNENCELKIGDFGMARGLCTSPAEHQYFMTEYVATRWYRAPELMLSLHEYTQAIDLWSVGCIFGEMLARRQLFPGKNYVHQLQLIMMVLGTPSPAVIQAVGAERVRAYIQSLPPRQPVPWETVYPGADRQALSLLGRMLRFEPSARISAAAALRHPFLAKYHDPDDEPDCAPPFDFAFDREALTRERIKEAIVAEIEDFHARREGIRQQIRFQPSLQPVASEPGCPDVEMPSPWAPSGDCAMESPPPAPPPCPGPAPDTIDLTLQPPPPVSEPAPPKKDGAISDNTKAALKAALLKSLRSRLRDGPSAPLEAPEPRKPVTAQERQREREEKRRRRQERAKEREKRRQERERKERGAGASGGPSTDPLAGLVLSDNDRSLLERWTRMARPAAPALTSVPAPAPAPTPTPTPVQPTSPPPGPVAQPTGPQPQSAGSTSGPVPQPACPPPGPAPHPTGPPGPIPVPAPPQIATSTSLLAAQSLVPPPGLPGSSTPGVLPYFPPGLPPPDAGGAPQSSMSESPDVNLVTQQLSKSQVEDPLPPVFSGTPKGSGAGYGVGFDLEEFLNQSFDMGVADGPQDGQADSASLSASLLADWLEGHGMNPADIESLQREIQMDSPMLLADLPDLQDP
Insulin receptor, sequence (P06213 28-758 limits assumed): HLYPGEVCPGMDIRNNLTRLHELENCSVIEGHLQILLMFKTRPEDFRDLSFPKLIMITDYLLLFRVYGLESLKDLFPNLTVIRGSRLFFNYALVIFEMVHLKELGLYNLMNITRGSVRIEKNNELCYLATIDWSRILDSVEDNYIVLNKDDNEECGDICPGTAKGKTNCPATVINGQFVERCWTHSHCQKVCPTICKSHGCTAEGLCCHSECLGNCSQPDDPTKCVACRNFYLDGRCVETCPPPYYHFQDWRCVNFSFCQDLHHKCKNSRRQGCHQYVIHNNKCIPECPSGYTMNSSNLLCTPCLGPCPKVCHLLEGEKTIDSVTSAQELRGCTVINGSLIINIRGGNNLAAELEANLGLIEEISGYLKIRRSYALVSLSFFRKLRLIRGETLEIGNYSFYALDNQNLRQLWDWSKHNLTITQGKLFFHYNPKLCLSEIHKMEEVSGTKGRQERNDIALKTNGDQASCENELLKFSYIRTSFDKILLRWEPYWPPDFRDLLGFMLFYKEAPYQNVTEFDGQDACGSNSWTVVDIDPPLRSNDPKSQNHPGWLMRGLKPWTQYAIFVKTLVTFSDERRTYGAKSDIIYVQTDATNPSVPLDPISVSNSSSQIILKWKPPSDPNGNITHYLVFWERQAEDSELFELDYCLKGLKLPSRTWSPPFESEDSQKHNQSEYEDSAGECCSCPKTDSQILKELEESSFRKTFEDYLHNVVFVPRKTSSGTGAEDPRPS
Insulin receptor, sequence (P06213 763-1382 limits assumed): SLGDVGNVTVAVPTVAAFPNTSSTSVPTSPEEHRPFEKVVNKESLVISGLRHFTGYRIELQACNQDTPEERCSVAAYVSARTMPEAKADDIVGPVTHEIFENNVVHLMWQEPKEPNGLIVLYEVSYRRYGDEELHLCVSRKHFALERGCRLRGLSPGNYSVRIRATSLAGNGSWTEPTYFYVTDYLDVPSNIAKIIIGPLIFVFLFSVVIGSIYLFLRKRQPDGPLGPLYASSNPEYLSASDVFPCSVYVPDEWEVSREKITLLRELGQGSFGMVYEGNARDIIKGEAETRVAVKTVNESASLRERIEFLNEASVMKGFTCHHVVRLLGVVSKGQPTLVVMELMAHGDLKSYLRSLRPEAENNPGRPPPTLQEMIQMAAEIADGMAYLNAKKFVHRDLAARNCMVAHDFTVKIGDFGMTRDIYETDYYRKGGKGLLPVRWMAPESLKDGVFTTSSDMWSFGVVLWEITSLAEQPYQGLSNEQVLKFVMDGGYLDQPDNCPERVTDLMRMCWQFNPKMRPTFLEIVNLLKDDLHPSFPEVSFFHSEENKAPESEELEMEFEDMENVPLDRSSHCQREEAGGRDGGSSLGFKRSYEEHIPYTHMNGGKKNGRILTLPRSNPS
Ephrin type-A receptor 2, sequence (P29317 whole entry): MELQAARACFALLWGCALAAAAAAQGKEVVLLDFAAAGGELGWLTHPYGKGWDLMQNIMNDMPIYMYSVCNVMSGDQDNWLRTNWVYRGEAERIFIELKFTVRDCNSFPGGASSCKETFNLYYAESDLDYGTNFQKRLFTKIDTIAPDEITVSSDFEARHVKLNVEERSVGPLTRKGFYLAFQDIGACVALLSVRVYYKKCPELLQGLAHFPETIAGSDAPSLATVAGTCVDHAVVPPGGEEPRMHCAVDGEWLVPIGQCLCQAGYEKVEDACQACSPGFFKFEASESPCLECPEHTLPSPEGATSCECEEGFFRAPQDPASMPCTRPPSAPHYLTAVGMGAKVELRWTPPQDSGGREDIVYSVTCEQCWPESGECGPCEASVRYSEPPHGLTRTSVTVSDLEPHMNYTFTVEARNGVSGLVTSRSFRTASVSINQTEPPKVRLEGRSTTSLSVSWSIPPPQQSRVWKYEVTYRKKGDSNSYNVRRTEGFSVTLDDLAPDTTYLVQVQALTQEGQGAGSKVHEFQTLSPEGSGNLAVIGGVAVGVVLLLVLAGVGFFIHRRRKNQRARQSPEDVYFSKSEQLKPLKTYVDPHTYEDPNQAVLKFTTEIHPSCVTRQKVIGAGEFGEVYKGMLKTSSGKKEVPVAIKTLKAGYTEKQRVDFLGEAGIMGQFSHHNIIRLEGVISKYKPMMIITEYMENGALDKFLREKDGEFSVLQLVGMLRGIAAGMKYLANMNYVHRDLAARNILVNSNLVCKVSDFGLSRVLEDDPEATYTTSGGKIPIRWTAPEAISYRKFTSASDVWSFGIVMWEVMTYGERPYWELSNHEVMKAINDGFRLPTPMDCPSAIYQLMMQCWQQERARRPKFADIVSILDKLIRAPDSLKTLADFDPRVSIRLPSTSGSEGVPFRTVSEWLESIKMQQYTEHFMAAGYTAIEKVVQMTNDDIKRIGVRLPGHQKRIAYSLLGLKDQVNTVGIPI

Take `C[C@@H](Nc1cc(F)cc(F)c1)c1cc(C(=O)N(C)C)cc2c(=O)cc(N3CCOCC3)oc12` [AZD-8186]: the Kd (on Ephrin type-A receptor 2; in assay [1]; on Insulin receptor; in [2]; in assay [3]; in assay [4]) was > 30 µM (inactive) in each case. In addition, in assay [5], the Kd was > 30 µM (inactive).
As for `COc1cc(OC)c(/C=C/S(=O)(=O)Cc2ccc(OC)c(NCC(=O)O)c2)c(OC)c1` [RIGOSERTIB], the Kd (in [6]; in [7]; on Ephrin type-A receptor 2; in assay [1]; on Insulin receptor; in assay [2]) was > 30 µM (inactive) each time. Also, the Kd in assay [3], in assay [4] and in assay [5] was > 30 µM (inactive) each time.
In the case of `CC[C@H](Nc1ncnc2[nH]cnc12)c1nc2cccc(F)c2c(=O)n1-c1ccccc1` [IDELALISIB], the Kd (in assay [6]; in [7]; at Ephrin type-A receptor 2; in [1]; on Insulin receptor; in assay [2]) was > 30 µM (inactive) each time. The Kd in [3], in assay [4] and in [5] was > 30 µM (inactive) throughout.
As to `C[C@@H](c1ccc2nccn2c1)n1nnc2ncc(-c3cnn(C)c3)nc21` [SAVOLITINIB], the Kd (in [6]; in assay [7]; at Ephrin type-A receptor 2; in assay [1]; at Insulin receptor; in assay [2]) was > 30 µM (inactive) in each case. For the same molecule, the Kd in [3] and in [5] was > 30 µM (inactive) throughout.
Consider `CN1N=C(N)c2cn([C@@H]3O[C@H](COP(=O)(O)O)[C@@H](O)[C@H]3O)c3ncnc1c23` [TRICIRIBINE PHOSPHATE], for which the Kd (in [6]; in assay [7]; at Ephrin type-A receptor 2; in assay [1]; on Insulin receptor; in [2]) was > 30 µM (inactive) throughout. Moreover, the Kd in [3], in assay [4] and in assay [5] was > 30 µM (inactive) each time.
As for `CCS(=O)(=O)N1CC(CC#N)(n2cc(-c3ncnc4[nH]ccc34)cn2)C1` [BARICITINIB], the Kd (in [6]; in assay [7]; at Ephrin type-A receptor 2; on Insulin receptor; in assay [2]; in assay [3]) was > 30 µM (inactive) throughout. Moreover, the Kd in assay [4] and in [5] was > 30 µM (inactive) in each case.
Turning to `C1=C/COCc2cc(ccc2OCCN2CCCC2)Nc2nccc(n2)-c2cccc(c2)COC/1` [PACRITINIB], the Kd in assay [6] was > 30 µM (inactive); in assay [7], > 30 µM (inactive); on Ephrin type-A receptor 2 it was > 30 µM (inactive); in [1], 0.674 µM (active); on Insulin receptor, > 30 µM (inactive); in [3], > 30 µM (inactive). In addition, the Kd in assay [4] and in [5] was > 30 µM (inactive) in each case.
In the case of `Cn1ncc(Cl)c1-c1cc(C(=O)N[C@H](CN)Cc2cccc(F)c2)sc1Cl` [AFURESERTIB], the Kd (in [6]; at Ephrin type-A receptor 2; in [1]; on Insulin receptor; in assay [2]; in assay [3]) was > 30 µM (inactive) each time. Besides, the Kd in assay [4] and in assay [5] was > 30 µM (inactive) in each case.
With `N[C@@H]1CCCN(c2c(/C=C3\SC(=O)NC3=O)cccc2-c2ccccc2)C1`, the Kd (in [6]; in assay [7]; on Ephrin type-A receptor 2; in assay [1]; on Insulin receptor; in [3]) was > 30 µM (inactive) each time. Also, the Kd in assay [4] and in assay [5] was > 30 µM (inactive) throughout.
`COc1cc2nccc(Oc3ccc(NC(=O)NC4CC4)c(Cl)c3)c2cc1C(N)=O` [LENVATINIB]: the Kd (in assay [6]; in [7]; on Ephrin type-A receptor 2; on Insulin receptor; in assay [2]; in assay [3]) was > 30 µM (inactive) in each case. The Kd in assay [4] and in [5] was > 30 µM (inactive) each time.
Take `CNC(=O)c1ccc(C)c(-n2c(C)cc(OCc3ccc(F)cc3F)c(Br)c2=O)c1` [PH-797804]: the Kd (in assay [6]; at Ephrin type-A receptor 2; in assay [1]; on Insulin receptor; in assay [2]; in [3]) was > 30 µM (inactive) each time. Moreover, the Kd in [4] and in assay [5] was > 30 µM (inactive) each time.
For the molecule `O=C1NC(=O)/C(=C/c2ccc3nccc(-c4ccncc4)c3c2)S1` [GSK-1059615], the Kd is > 30 µM (inactive) in assay [7]; > 30 µM (inactive) at Ephrin type-A receptor 2; 7.44 µM (active) in assay [1]; > 30 µM (inactive) on Insulin receptor; > 30 µM (inactive) in assay [2]; > 30 µM (inactive) in [3]. Moreover, the figures for the Kd in [4] and in assay [5] were 0.331 µM and > 30 µM (inactive), respectively.
